Tests used:
[1] = tested on: Septoria lycopersici/Corynespora cassicola (CORYCA); assay: Septoria lycopersici/Corynespora cassicola (CORYCA) (leaf spot of tomato) in vitro test, radial growth on potato dextrose agar; assay type: cell-based; details: 168 h, 300 ppm in potato dextrose agar, 25° C., 70% relative humidity, seven days, read-out: control compared to the untreated check (radial growth)
Rhizoctonia solani = Rhizoctonia solani (rice sheath blight/potato black scurf) in vitro test, radial growth on potato dextrose agar; assay type: cell-based; details: 168 h, 300 ppm in potato dextrose agar, 25° C., 60% relative humidity, seven days, read-out: control compared to the untreated check (radial growth)
Botrytis cinerea = Botrytis cinerea (gray mold) in vitro test, radial growth on potato dextrose agar; assay type: cell-based; details: 168 h, 300 ppm in potato dextrose agar, 22° C., 90% relative humidity, seven days, read-out: control compared to the untreated check (radial growth)
Colletotrichum capsici = Colletotrichum capsici (anthracnose) in vitro test, radial growth on potato dextrose agar; assay type: cell-based; details: Colletotrichum truncatum, 168 h; 300 ppm in potato dextrose agar; 25° C., 60% relative humidity, seven days; read-out: control compared to the untreated check (radial growth)
Phakopsora pachyrhizi = Phakopsora pachyrhizi test in soybean, preventive, in vivo on plants; details: in Glycine max, read-out: Efficacy (% control), disease severity compared to the untreated check
Pyricularia oryzae = assay: microbe, parasite or virus in culture; assay type: cell-based; details: 168 h, read-out: control compared to the untreated check (radial growth)
Alternaria solani = Alternaria solani (early blight of tomato/potato) in vitro test, radial growth on potato dextrose agar; assay type: cell-based; details: 168 h, 300 ppm in potato dextrose agar, 25° C., 60% relative humidity, seven days, read-out: control compared to the untreated check (radial growth)

CCN(C)C=Nc1cc(F)cc(Cc2cccc(C(F)(F)F)c2)c1C [Compound 201, N-ethyl-N′-(5-fluoro-2-methyl-3-(3-(trifluoromethyl)benzyl)phenyl)-N-methylformimidamide]
≥ 70%: inhibition of growth at 300 ppm [1] | inhibition of growth at 300 ppm (Rhizoctonia solani) | inhibition of growth at 300 ppm (Botrytis cinerea) | inhibition of growth at 300 ppm (Colletotrichum capsici) | pest or weed control at 500 ppm (Phakopsora pachyrhizi) | inhibition of growth at 300 ppm (Pyricularia oryzae) | inhibition of growth at 300 ppm (Alternaria solani)

CCN(C)C=Nc1cc(F)cc(Cc2cccc(Cl)c2)c1C [Compound 144, N′-(3-(3-chlorobenzyl)-5-fluoro-2-methylphenyl)-N-ethyl-N-methylformimidamide]
≥ 70%: inhibition of growth at 300 ppm [1] | inhibition of growth at 300 ppm (Rhizoctonia solani) | inhibition of growth at 300 ppm (Botrytis cinerea) | inhibition of growth at 300 ppm (Colletotrichum capsici) | pest or weed control at 500 ppm (Phakopsora pachyrhizi) | inhibition of growth at 300 ppm (Pyricularia oryzae) | inhibition of growth at 300 ppm (Alternaria solani)

CCN(C)C=Nc1cc(C)cc(Nc2cc(Cl)ccc2C)c1Cl [Compound 100, N′-(2-chloro-3-((5-chloro-2-methylphenyl)amino)-5-methylphenyl)-N-ethyl-N-methylformimidamide]
≥ 70%: inhibition of growth at 300 ppm [1] | inhibition of growth at 300 ppm (Rhizoctonia solani) | inhibition of growth at 300 ppm (Botrytis cinerea) | inhibition of growth at 300 ppm (Colletotrichum capsici) | pest or weed control at 500 ppm (Phakopsora pachyrhizi) | inhibition of growth at 300 ppm (Pyricularia oryzae) | inhibition of growth at 300 ppm (Alternaria solani)

CCN(C)C=Nc1cc(C)cc(Cc2ccc(Br)c(C)c2)c1Cl [Compound 216, N′-(3-(4-bromo-3-methylbenzyl)-2-chloro-5-methylphenyl)-N-ethyl-N-methylformimidamide]
≥ 70%: inhibition of growth at 300 ppm [1] | inhibition of growth at 300 ppm (Rhizoctonia solani) | inhibition of growth at 300 ppm (Botrytis cinerea) | inhibition of growth at 300 ppm (Colletotrichum capsici) | pest or weed control at 500 ppm (Phakopsora pachyrhizi) | inhibition of growth at 300 ppm (Pyricularia oryzae) | inhibition of growth at 300 ppm (Alternaria solani)

CCN(C)C=Nc1cc(Cl)cc(Cc2ccccc2)c1C [Compound 79, N′-(3-benzyl-5-chloro-2-methylphenyl)-N-ethyl-N-methylformimidamide]
≥ 70%: inhibition of growth at 300 ppm [1] | inhibition of growth at 300 ppm (Rhizoctonia solani) | inhibition of growth at 300 ppm (Botrytis cinerea) | inhibition of growth at 300 ppm (Colletotrichum capsici) | pest or weed control at 500 ppm (Phakopsora pachyrhizi) | inhibition of growth at 300 ppm (Pyricularia oryzae) | inhibition of growth at 300 ppm (Alternaria solani)

CCN(C)C=Nc1cc(C)cc(Nc2cccc(C(C)C)c2)c1Cl [Compound 58, N′-(2-chloro-3-((3-isopropylphenyl)amino)-5-methylphenyl)-N-ethyl-N-methylformimidamide]
≥ 70%: inhibition of growth at 300 ppm [1] | inhibition of growth at 300 ppm (Rhizoctonia solani) | inhibition of growth at 300 ppm (Botrytis cinerea) | inhibition of growth at 300 ppm (Colletotrichum capsici) | pest or weed control at 500 ppm (Phakopsora pachyrhizi) | inhibition of growth at 300 ppm (Pyricularia oryzae) | inhibition of growth at 300 ppm (Alternaria solani)

CCN(C)C=Nc1cc(F)cc(Cc2ccccc2C(F)(F)F)c1C [Compound 143, N-ethyl-N′-(5-fluoro-2-methyl-3-(2-(trifluoromethyl)benzyl)phenyl)-N-methylformimidamide]
≥ 70%: inhibition of growth at 300 ppm [1] | inhibition of growth at 300 ppm (Rhizoctonia solani) | inhibition of growth at 300 ppm (Botrytis cinerea) | inhibition of growth at 300 ppm (Colletotrichum capsici) | pest or weed control at 500 ppm (Phakopsora pachyrhizi) | inhibition of growth at 300 ppm (Pyricularia oryzae) | inhibition of growth at 300 ppm (Alternaria solani)

CCN(C)C=Nc1cc(C)cc(Cc2c(F)cccc2F)c1Cl [Compound 91, N′-(2-chloro-3-(2,6-difluorobenzyl)-5-methylphenyl)-N-ethyl-N-methylformimidamide]
≥ 70%: inhibition of growth at 300 ppm [1] | inhibition of growth at 300 ppm (Rhizoctonia solani) | inhibition of growth at 300 ppm (Botrytis cinerea) | inhibition of growth at 300 ppm (Colletotrichum capsici) | pest or weed control at 500 ppm (Phakopsora pachyrhizi) | inhibition of growth at 300 ppm (Pyricularia oryzae) | inhibition of growth at 300 ppm (Alternaria solani)

CCN(C)C=Nc1cc(C)cc(Cc2ccccc2F)c1Cl [Compound 14, N′-(2-chloro-3-(2-fluorobenzyl)-5-methylphenyl)-N-ethyl-N-methylformimidamide]
≥ 70%: inhibition of growth at 300 ppm [1] | inhibition of growth at 300 ppm (Rhizoctonia solani) | inhibition of growth at 300 ppm (Botrytis cinerea) | inhibition of growth at 300 ppm (Colletotrichum capsici) | pest or weed control at 500 ppm (Phakopsora pachyrhizi) | inhibition of growth at 300 ppm (Pyricularia oryzae) | inhibition of growth at 300 ppm (Alternaria solani)

CCN(C)C=Nc1cc(F)cc(Cc2ccc(F)c(C)c2)c1C [Compound 203, N-ethyl-N′-(5-fluoro-3-(4-fluoro-3-methylbenzyl)-2-methylphenyl)-N-methylformimidamide]
≥ 70%: inhibition of growth at 300 ppm [1] | inhibition of growth at 300 ppm (Rhizoctonia solani) | inhibition of growth at 300 ppm (Botrytis cinerea) | inhibition of growth at 300 ppm (Colletotrichum capsici) | pest or weed control at 500 ppm (Phakopsora pachyrhizi) | inhibition of growth at 300 ppm (Pyricularia oryzae) | inhibition of growth at 300 ppm (Alternaria solani)

CCN(C)C=Nc1cc(Cl)cc(Cc2ccccc2Cl)c1C [Compound 89, N′-(5-chloro-3-(2-chlorobenzyl)-2-methylphenyl)-N-ethyl-N-methylformimidamide]
≥ 70%: inhibition of growth at 300 ppm [1] | inhibition of growth at 300 ppm (Rhizoctonia solani) | inhibition of growth at 300 ppm (Botrytis cinerea) | inhibition of growth at 300 ppm (Colletotrichum capsici) | pest or weed control at 500 ppm (Phakopsora pachyrhizi) | inhibition of growth at 300 ppm (Pyricularia oryzae) | inhibition of growth at 300 ppm (Alternaria solani)

CCN(C)C=Nc1cc(F)cc(Cc2cc(C)cc(F)c2)c1C [Compound 235, N-ethyl-N′-(5-fluoro-3-(3-fluoro-5-methylbenzyl)-2-methylphenyl)-N-methylformimidamide]
≥ 70%: inhibition of growth at 300 ppm [1] | inhibition of growth at 300 ppm (Rhizoctonia solani) | inhibition of growth at 300 ppm (Botrytis cinerea) | inhibition of growth at 300 ppm (Colletotrichum capsici) | pest or weed control at 500 ppm (Phakopsora pachyrhizi) | inhibition of growth at 300 ppm (Pyricularia oryzae) | inhibition of growth at 300 ppm (Alternaria solani)

CCN(C)C=Nc1cc(C)cc(Cc2c(F)cccc2Cl)c1Cl [Compound 92, N′-(2-chloro-3-(2-chloro-6-fluorobenzyl)-5-methylphenyl)-N-ethyl-N-methylformimidamide]
≥ 70%: inhibition of growth at 300 ppm [1] | inhibition of growth at 300 ppm (Rhizoctonia solani) | inhibition of growth at 300 ppm (Botrytis cinerea) | inhibition of growth at 300 ppm (Colletotrichum capsici) | pest or weed control at 500 ppm (Phakopsora pachyrhizi) | inhibition of growth at 300 ppm (Pyricularia oryzae) | inhibition of growth at 300 ppm (Alternaria solani)

CCN(C)C=Nc1cc(F)cc(Nc2cc(Cl)cc(C(F)(F)F)c2)c1C [Compound 161, N′-(3-((3-chloro-5-(trifluoromethyl)phenyl)amino)-5-fluoro-2-methylphenyl)-N-ethyl-N-methylformimidamide]
≥ 70%: inhibition of growth at 300 ppm [1] | inhibition of growth at 300 ppm (Rhizoctonia solani) | inhibition of growth at 300 ppm (Botrytis cinerea) | inhibition of growth at 300 ppm (Colletotrichum capsici) | pest or weed control at 500 ppm (Phakopsora pachyrhizi) | inhibition of growth at 300 ppm (Pyricularia oryzae) | inhibition of growth at 300 ppm (Alternaria solani)

CCN(C)C=Nc1cc(F)cc(Nc2cccc(C)c2)c1C [Compound 31, N-ethyl-N′-(5-fluoro-2-methyl-3-(m-tolylamino)phenyl)-N-methylformimidamide]
≥ 70%: inhibition of growth at 300 ppm [1] | inhibition of growth at 300 ppm (Rhizoctonia solani) | inhibition of growth at 300 ppm (Botrytis cinerea) | inhibition of growth at 300 ppm (Colletotrichum capsici) | pest or weed control at 500 ppm (Phakopsora pachyrhizi) | inhibition of growth at 300 ppm (Pyricularia oryzae) | inhibition of growth at 300 ppm (Alternaria solani)

CCN(C)C=Nc1cc(C)cc(Cc2ccc(F)c(F)c2)c1Cl [Compound 67, N′-(2-chloro-3-(3,4-difluorobenzyl)-5-methylphenyl)-N-ethyl-N-methylformimidamide]
≥ 70%: inhibition of growth at 300 ppm [1] | inhibition of growth at 300 ppm (Rhizoctonia solani) | inhibition of growth at 300 ppm (Botrytis cinerea) | inhibition of growth at 300 ppm (Colletotrichum capsici) | pest or weed control at 500 ppm (Phakopsora pachyrhizi) | inhibition of growth at 300 ppm (Pyricularia oryzae) | inhibition of growth at 300 ppm (Alternaria solani)

CCN(C)C=Nc1cc(Cl)cc(Cc2ccccc2F)c1C [Compound 103, N′-(5-chloro-3-(2-fluorobenzyl)-2-methylphenyl)-N-ethyl-N-methylformimidamide]
≥ 70%: inhibition of growth at 300 ppm [1] | inhibition of growth at 300 ppm (Rhizoctonia solani) | inhibition of growth at 300 ppm (Botrytis cinerea) | inhibition of growth at 300 ppm (Colletotrichum capsici) | pest or weed control at 500 ppm (Phakopsora pachyrhizi) | inhibition of growth at 300 ppm (Pyricularia oryzae) | inhibition of growth at 300 ppm (Alternaria solani)

CCN(C)C=Nc1cc(C)cc(Nc2c(C)cccc2F)c1Cl [Compound 133, N′-(2-chloro-3-((2-fluoro-6-methylphenyl)amino)-5-methylphenyl)-N-ethyl-N-methylformimidamide]
≥ 70%: inhibition of growth at 300 ppm [1] | inhibition of growth at 300 ppm (Rhizoctonia solani) | inhibition of growth at 300 ppm (Botrytis cinerea) | inhibition of growth at 300 ppm (Colletotrichum capsici) | pest or weed control at 500 ppm (Phakopsora pachyrhizi) | inhibition of growth at 300 ppm (Pyricularia oryzae) | inhibition of growth at 300 ppm (Alternaria solani)

CCN(C)C=Nc1cc(F)cc(Nc2ccc(SC(F)(F)F)cc2)c1C [Compound 16, N-ethyl-N′-(5-fluoro-2-methyl-3-((4-((trifluoromethyl)thio)phenyl)amino)phenyl)-N-methylformimidamide]
≥ 70%: inhibition of growth at 300 ppm [1] | inhibition of growth at 300 ppm (Rhizoctonia solani) | inhibition of growth at 300 ppm (Botrytis cinerea) | inhibition of growth at 300 ppm (Colletotrichum capsici) | pest or weed control at 500 ppm (Phakopsora pachyrhizi) | inhibition of growth at 300 ppm (Pyricularia oryzae) | inhibition of growth at 300 ppm (Alternaria solani)

CCN(C)C=Nc1cc(Cl)cc(Cc2ccc(F)c(C)c2)c1C [Compound 128, N′-(5-chloro-3-(4-fluoro-3-methylbenzyl)-2-methylphenyl)-N-ethyl-N-methylformimidamide]
≥ 70%: inhibition of growth at 300 ppm [1] | inhibition of growth at 300 ppm (Rhizoctonia solani) | inhibition of growth at 300 ppm (Botrytis cinerea) | inhibition of growth at 300 ppm (Colletotrichum capsici) | pest or weed control at 500 ppm (Phakopsora pachyrhizi) | inhibition of growth at 300 ppm (Pyricularia oryzae) | inhibition of growth at 300 ppm (Alternaria solani)
